Assay results published in US20220313670A1, “Methods Of Treating Fabry Disease In Patients Having Renal Impairment” (Amicus Therapeutics, Inc., priority 2019, published 2022).
Where two headings read alike, the source gives them in different places.

How the values were obtained:
[1] = cited from earlier work; for Mean percent of the dose recovered in urine: single ascending dose (SAD) study
cardiac repolarization = conditions: 150 mg and 1250 mg single doses; cited from earlier work
[2] = eGFR (MDRD), IDMS traceable, in Fabry patients on migalastat; assay type: in vivo, human; design: eGFR(MDRD), IDMS Traceable: unit not given here
Description: An estimated GFR (eGFR) is calculated from serum creatinine using an isotope dilution mass spectrometry (IDMS) traceable equation. Two of the most commonly used equations for estimating glomerular filtration rate (GFR) from serum creatinine are the Chronic Kidney Disease Epidemiology Collaboration (CKD-EPI) equation and the Modification of Diet in Renal Disease (MDRD) Study equation. Both the MDRD Study and CKD-EPI equations include variables for age, gender, and race, which may allow providers to observe that CKD is present despite a serum creatinine concentration that appears to fall within or just above the normal reference interval. The following is the IDMS-traceable MDRD Study equation (for creatinine methods calibrated to an IDMS reference method): […]

[3] = Plasma migalastat concentration in two Fabry patients with renal impairment (P1, P2; Example 3); assay type: in vivo, human; conditions: for concentration at 0 h: human, plasma, Fabry patient P1 (moderate renal impairment), Pre-dose (0 h)
Description: (§1) Migalastat levels can be measured via methods known in the art. […] Microcentrifuge tubes containing 100 μl of the tissue homogenate or 50 μl of plasma may then be spiked with 500 ng/mL 13C d2-AT1001 HCl internal standard (manufactured by MDS Pharma Services). A 600 μl volume of 5 mM HCl in 95/5 MeOH:H2O can then be added and the tubes vortexed for 2 minutes, followed by centrifugation at 21000×g for 10 minutes at room temperature. The supernatants may then be collected into a clean, 96-well plate, diluted with 5 mM HCl in dH2O and applied to a 96-well solid phase extraction (SPE) plate (Waters Corp., Milford Mass.). […] The liquid chromatography can be conducted using an ACN:water:formate binary mobile phase system (mobile phase A: 5 mM ammonium formate, 0.5% formic acid in 95:5 ACN:water; mobile phase B: 5 mM ammonium formate, 0.5% formic acid in 5:47.5:47.5 ACN:MeOH:water) with a flow rate of 0.7 mL/minute on an Halo HILIC column (150×4.6 mm, 2.7 μm) (Advanced Materials Technology, Inc.). MS/MS analysis may be carried out under APCi positive ion mode. The same procedure may be followed for migalastat determination in plasma except without homogenization. […] A 12-point calibration curve and quality control samples may be prepared. […] To derive approximate molar concentrations, one gram of tissue may be estimated as one mL of volume.
Thus, two Fabry patients with renal impairment were evaluated. One patient (P1) had moderate renal impairment, while the other patient (P2) had severe renal impairment. […] The comparison with the results from the FACETS study allows for comparison of PK in the Fabry population with mostly normal, but some mild and a few moderately impaired Fabry patients. None had severe renal impairment because these patients were excluded from the study.

Fabry disease = experiment: Phase 3 studies (FACETS, ATTRACT) of migalastat 150 mg every other day in Fabry patients; assay type: in vivo, human
Text: One or more of the dosing regimens described herein are particularly suitable for Fabry patients who have some degree of renal impairment. […]00925301) was a 24-month trial, including a 6-month double-blind, placebo-controlled period, in 67 enzyme replacement therapy (ERT)-naive patients. ATTRACT (012, NCT01218659) was an active-controlled, 18-month trial in 57 ERT-experienced patients with a 12-month open-label extension (OLE). […] Accordingly, both studies included Fabry patients with normal renal function as well as patients with mild and moderate renal impairment, but neither study included patients with severe renal impairment. […] With a slowing in the ability to clear the drug from the body there can be an increasing exposure to the patient to the drug. Thus, in some embodiments a dose adjustment protocol is provided to inform physicians of the best dose taking into consideration the current clearance profile from the body. Dose adjustment is particularly difficult with a chaperone because it is an inhibitor, and a delicate balance must be reached such that the chaperone is present in amounts great enough to be therapeutic, but also not so great that the chaperone inhibits enzyme function (which would exacerbate the disease).

[4] = Pharmacokinetics of migalastat HCl in a Fabry patient with severe renal impairment (P3, 2004-5029; Example 6); assay type: in vivo, human
Description: as §1
PK data was collected every three months.

[5] = Fabry patient P1, moderate renal impairment
[6] = Severe RI Fabry patient 2004-5029 (P3), CLcr 21, 5/17, Q4D regimen
[7] = human, plasma, Severe RI Fabry patient 2004-5029 (P3), CLcr 21, 5/17, Q4D regimen

increase of C48h concentration over 6 months [3, 5]: 49%
increase of Cmax over 6 months [3, 5]: 33%
concentration at 0 h ([3]; Migalastat Conc 6 months later): 0.0364 µg/mL
concentration at 0 h ([3]; Migalastat Conc, first set): 0.0199 µg/mL
Plasma Migalastat Conc ([4]; Fabry patient P3, May ′17 (Q4D), 0 h): BLQ
CL/F [4, 6]: 4.67 L/h
Frel [4, 6]: 2.6
concentration at 0 h ([4]; human, plasma, Plasma Migalastat Conc, Fabry patient P3, Aug ′15, 0 h): 0.0364 µg/mL
concentration at 3 h ([4]; human, plasma, Plasma Migalastat Conc, Fabry patient P3, Aug ′15, 3 h): 2.16 µg/mL
concentration at 24 h ([4]; human, plasma, Plasma Migalastat Conc, Fabry patient P3, Aug ′15, 24 h): 0.211 µg/mL
concentration at 48 h ([4]; human, plasma, Plasma Migalastat Conc, Fabry patient P3, Aug ′15, 48 h): 0.0624 µg/mL
concentration at 48 h ([4]; human, plasma, Plasma Migalastat Conc, Fabry patient P3, Aug ′17 (Q4D), 48 h): 0.13 µg/mL
concentration at 96 h ([4]; human, plasma, Plasma Migalastat Conc, Fabry patient P3, Aug ′17 (Q4D), 96 h): 0.0613 µg/mL
concentration at 0 h ([4]; human, plasma, Plasma Migalastat Conc, Fabry patient P3, Feb ′15, 0 h): 0.0199 µg/mL
concentration at 3 h ([4]; human, plasma, Plasma Migalastat Conc, Fabry patient P3, Feb ′15, 3 h): 1.62 µg/mL
concentration at 24 h ([4]; human, plasma, Plasma Migalastat Conc, Fabry patient P3, Feb ′15, 24 h): 0.168 µg/mL
concentration at 48 h ([4]; human, plasma, Plasma Migalastat Conc, Fabry patient P3, Feb ′15, 48 h): 0.0418 µg/mL
concentration at 0 h ([4]; human, plasma, Plasma Migalastat Conc, Fabry patient P3, Mar ′11, 0 h): 0.0381 µg/mL
concentration at 3 h ([4]; human, plasma, Plasma Migalastat Conc, Fabry patient P3, Mar ′11, 3 h): 1.56 µg/mL
concentration at 4 h ([4]; human, plasma, Plasma Migalastat Conc, Fabry patient P3, Mar ′11, 4 h): 1.57 µg/mL
concentration at 8 h ([4]; human, plasma, Plasma Migalastat Conc, Fabry patient P3, Mar ′11, 8 h): 0.802 µg/mL
concentration at 3 h ([4]; human, plasma, Plasma Migalastat Conc, Fabry patient P3, May ′17 (Q4D), 3 h): 2.11 µg/mL
concentration at 4 h ([4]; human, plasma, Plasma Migalastat Conc, Fabry patient P3, May ′17 (Q4D), 4 h): 1.97 µg/mL
concentration at 8 h ([4]; human, plasma, Plasma Migalastat Conc, Fabry patient P3, May ′17 (Q4D), 8 h): 1.38 µg/mL
concentration at 24 h ([4]; human, plasma, Plasma Migalastat Conc, Fabry patient P3, May ′17 (Q4D), 24 h): 0.358 µg/mL
concentration at 48 h ([4]; human, plasma, Plasma Migalastat Conc, Fabry patient P3, May ′17 (Q4D), 48 h): 0.0774 µg/mL
concentration at 96 h ([4]; human, plasma, Plasma Migalastat Conc, Fabry patient P3, May ′17 (Q4D), 96 h): 0.0184 µg/mL
concentration at 48 h ([4]; human, plasma, Plasma Migalastat Conc, Fabry patient P3, Nov ′17 (Q4D), 48 h): 0.401 µg/mL
concentration at 96 h ([4]; human, plasma, Plasma Migalastat Conc, Fabry patient P3, Nov ′17 (Q4D), 96 h): 0.0862 µg/mL
concentration at 48 h ([4]; human, plasma, Severe RI Fabry patient 2004-5029 (P3), CLcr 15, 11/17, Q4D regimen, read-out: C48 h): 0.401 µg/mL
concentration at 96 h ([4]; human, plasma, Severe RI Fabry patient 2004-5029 (P3), CLcr 15, 11/17, Q4D regimen, read-out: C96 h): 0.0862 µg/mL
concentration at 48 h ([4]; human, plasma, Severe RI Fabry patient 2004-5029 (P3), CLcr 19, 8/17, Q4D regimen, read-out: C48 h): 0.13 µg/mL
concentration at 96 h ([4]; human, plasma, Severe RI Fabry patient 2004-5029 (P3), CLcr 19, 8/17, Q4D regimen, read-out: C96 h): 0.0613 µg/mL
AUC(0-inf) [4, 7]: 32.1 µg·h/mL
AUC(0-t) [4, 7]: 31.9 µg·h/mL
Cmax [4, 7]: 2.25 µg/mL
half-life [4, 7]: 13.2 h
tmax [4, 7]: 2 h
concentration at 48 h ([4]; human, plasma, Severe RI Fabry patient 2004-5029 (P3), CLcr 21, 5/17, Q4D regimen, read-out: C48 h): 0.0774 µg/mL
concentration at 96 h ([4]; human, plasma, Severe RI Fabry patient 2004-5029 (P3), CLcr 21, 5/17, Q4D regimen, read-out: C96 h): 0.0184 µg/mL
SMILES: OC[C@H]1NC[C@H](O)[C@@H](O)[C@H]1O [migalastat, (2R,3S,4R,55)-2-(hydroxymethyl) piperdine-3,4,5-triol]
accumulation of plasma migalastat ([1]; multiple ascending dose studies): only minimal accumulation
Mean Cmax and AUC0-t values versus dose ([1]; oral doses from 75 mg to 1250 mg): increased in a dose-proportional manner
Mean percent of the dose recovered in urine ([1]; 25 mg): 32.2%
Mean percent of the dose recovered in urine ([1]; 75 mg): 43.0%
Mean percent of the dose recovered in urine ([1]; 225 mg): 49.3%
Mean percent of the dose recovered in urine ([1]; 675 mg): 48.5%
time to maximum concentrations ([1]; single-dose studies, oral, healthy volunteers and Fabry patients with normal to mildly impaired renal function (range, 1 to 6 hrs)): approximately 3 hours
effect on cardiac repolarization (cardiac repolarization): negative
eGFR(MDRD), IDMS Traceable ([2]; Fabry patient P1, 18 Month Visit): 42
eGFR(MDRD), IDMS Traceable ([2]; Fabry patient P1, 24 Month Visit): 37
eGFR(MDRD), IDMS Traceable ([2]; Fabry patient P1, 34-Month Visit): 32
eGFR ([2]; Fabry patient P3, Aug ′15): 32 mL/min/1.73 m^2
eGFR ([2]; Fabry patient P3, Aug ′17): 19 mL/min/1.73 m^2
eGFR(MDRD), IDMS Traceable ([2]; Fabry patient P3, August 2014, QOD): 37
eGFR(MDRD), IDMS Traceable ([2]; Fabry patient P3, August 2017, Q4D): 19
eGFR(MDRD), IDMS Traceable ([2]; Fabry patient P3, February 2014, QOD): 42
eGFR(MDRD), IDMS Traceable ([2]; Fabry patient P3, February 2018, Q7D): 13
eGFR(MDRD), IDMS Traceable ([2]; Fabry patient P3, January 2018, Q7D): 13
eGFR(MDRD), IDMS Traceable ([2]; Fabry patient P3, June 2015, QOD): 32
eGFR ([2]; Fabry patient P3, Mar ′11): 59 mL/min/1.73 m^2
eGFR(MDRD), IDMS Traceable ([2]; Fabry patient P3, March 2011, QOD): 59
eGFR(MDRD), IDMS Traceable ([2]; Fabry patient P3, March 2016, QOD): 28
eGFR(MDRD), IDMS Traceable ([2]; Fabry patient P3, May 2017, Q4D): 21
eGFR ([2]; Fabry patient P3, May ′17): 21 mL/min/1.73 m^2
eGFR ([2]; Fabry patient P3, Nov ′17): 15 mL/min/1.73 m^2
eGFR(MDRD), IDMS Traceable ([2]; Fabry patient P3, November 2017, Q4D): 15
eGFR(MDRD), IDMS Traceable ([2]; Fabry patient P3, September 2010, QOD): 54
eGFR(MDRD), IDMS Traceable ([2]; Fabry patient P3, September 2015, QOD): 33
disease progression as shown by surrogate markers (Fabry disease): slowed the progression of the disease
